In brackets after ≈: the same amount, converted by molar mass. Activity calls are given as the source filed them. The calls are words filed in the database; no cut-off is given here.
Assays:
[1] = Plasma protein binding in human; assay type: ADME, cell-free; settings: read-out: PPB (converted)
[2] = Plasma protein binding in mouse; assay type: ADME, cell-free; settings: read-out: PPB (converted)
[3] = Aqueous solubility of the compound at pH 6.8; assay type: physicochemical
[4] = Octanol-water partition coefficient, log P of the compound; assay type: physicochemical
[5] = test system: Mycobacterium tuberculosis; test: Antitubercular activity against Mycobacterium tuberculosis H37Rv ATCC 27294 […]; assay type: functional
[6] = test system: Mycobacterium tuberculosis; test: Antitubercular activity against Mycobacterium tuberculosis infected in BALB/c mouse assessed as reduction in log10CFU at 100 mg/kg, po qd administered 7 days post-infection for 28 days relative to control; assay type: functional
[7] = Ratio of Cmax in mouse lung to Cmax in mouse plasma at 25 mg/kg, po; assay type: ADME, organism-based; set-up: dose 25 mg/kg, route oral
[8] = Oral bioavailability in mouse at 25 mg/kg; assay type: ADME, organism-based; settings: in vivo
[9] = Ratio of AUC in mouse lung to AUC in mouse plasma at 25 mg/kg, po; assay type: ADME, organism-based; set-up: dose 25 mg/kg, route oral; settings: read-out: Ratio AUC
[10] = Cmax in mouse at 25 mg/kg, po; assay type: ADME, organism-based; set-up: dose 25 mg/kg, route oral; settings: in vivo
[11] = Cmax in mouse at 200 mg/kg, po; assay type: ADME, organism-based; set-up: dose 200 mg/kg, route oral; settings: in vivo
[12] = AUC in mouse at 200 mg/kg, po; assay type: ADME, organism-based; set-up: dose 200 mg/kg, route oral; settings: plasma
[13] = Elimination half life in mouse at 5 mg/kg, iv; assay type: ADME, organism-based; set-up: dose 5 mg/kg, route intravenous; settings: in vivo, read-out: beta t1/2 (converted)
[14] = AUC in mouse at 25 mg/kg, po; assay type: ADME, organism-based; set-up: dose 25 mg/kg, route oral; settings: plasma
[15] = Clearance in mouse at 5 mg/kg, iv; assay type: ADME, organism-based; set-up: dose 5 mg/kg, route intravenous; settings: in vivo
[16] = Volume of distribution at steady state in mouse at 5 mg/kg, iv; assay type: ADME, organism-based; set-up: dose 5 mg/kg, route intravenous; settings: in vivo, read-out: Vdss
[17] = Clearance in mouse liver microsomes; assay type: ADME, Microsome; settings: read-out: CLH
[18] = target: T1, Nuclear receptor subfamily 1 group I member 2 (Homo sapiens, UniProt O75469); test: Induction of PXR-mediated CYP3A4 expression in human DPX2 cells after 24 hrs by luciferase reporter gene assay; assay type: cell-based; settings: dpx2, 24 h
T1 sequence (O75469 whole entry): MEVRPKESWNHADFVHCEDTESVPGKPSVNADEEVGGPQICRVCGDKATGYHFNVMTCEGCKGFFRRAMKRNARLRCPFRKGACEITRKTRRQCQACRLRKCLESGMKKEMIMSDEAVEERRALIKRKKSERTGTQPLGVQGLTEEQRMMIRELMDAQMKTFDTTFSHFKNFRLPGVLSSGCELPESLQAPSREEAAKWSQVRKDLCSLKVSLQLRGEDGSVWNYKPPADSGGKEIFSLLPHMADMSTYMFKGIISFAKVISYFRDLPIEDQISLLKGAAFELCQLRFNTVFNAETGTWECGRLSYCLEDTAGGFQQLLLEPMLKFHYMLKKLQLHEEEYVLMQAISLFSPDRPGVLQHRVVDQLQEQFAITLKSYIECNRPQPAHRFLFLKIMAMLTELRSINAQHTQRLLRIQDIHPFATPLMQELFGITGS

Cytochrome P450 2C9 = Cytochrome P450 2C9 (Homo sapiens, UniProt P11712); test: Inhibition of CYP2C9 in human liver microsomes using diclofenac as substrate by LC-MS/MS analysis; assay type: ADME, Microsome
Cytochrome P450 2D6 = Cytochrome P450 2D6 (Homo sapiens, UniProt P10635); test: Inhibition of CYP2D6 in human liver microsomes using bufuralol as substrate by LC-MS/MS analysis; assay type: ADME, Microsome
Cytochrome P450 3A4 = Cytochrome P450 3A4 (Homo sapiens, UniProt P08684); test: Inhibition of CYP3A4 in human liver microsomes using midazolam as substrate by LC-MS/MS analysis; assay type: ADME, Microsome
Cytochrome P450 3A5 = Cytochrome P450 3A5 (Homo sapiens, UniProt P20815); test: Inhibition of CYP3A5 in human liver microsomes using midazolam as substrate by LC-MS/MS analysis; assay type: ADME, Microsome
[19] = Cmax in mouse; assay type: ADME, organism-based; settings: in vivo
[20] = AUC in mouse; assay type: ADME, organism-based; settings: plasma
[21] = test system: Mycobacterium tuberculosis; test: Bactericidal activity against Mycobacterium tuberculosis H37Rv ATCC 27294 infected in activated human THP1 cells; assay type: functional, organism-based; settings: THP-1

Sequence of Cytochrome P450 2D6 (P10635 whole entry): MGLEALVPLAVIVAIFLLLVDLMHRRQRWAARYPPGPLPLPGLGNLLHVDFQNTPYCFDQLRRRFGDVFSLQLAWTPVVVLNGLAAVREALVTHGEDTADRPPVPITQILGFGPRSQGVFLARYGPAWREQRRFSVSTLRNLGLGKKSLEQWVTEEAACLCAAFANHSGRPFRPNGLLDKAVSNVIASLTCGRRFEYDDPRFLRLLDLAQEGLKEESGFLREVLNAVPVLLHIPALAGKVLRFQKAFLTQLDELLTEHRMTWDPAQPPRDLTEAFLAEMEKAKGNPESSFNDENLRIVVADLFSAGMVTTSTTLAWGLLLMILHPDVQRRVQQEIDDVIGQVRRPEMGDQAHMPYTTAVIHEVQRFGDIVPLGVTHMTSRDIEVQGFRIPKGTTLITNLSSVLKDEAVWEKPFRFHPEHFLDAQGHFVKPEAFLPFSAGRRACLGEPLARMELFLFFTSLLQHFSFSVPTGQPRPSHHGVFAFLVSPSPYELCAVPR
Sequence of Cytochrome P450 3A5 (P20815 whole entry): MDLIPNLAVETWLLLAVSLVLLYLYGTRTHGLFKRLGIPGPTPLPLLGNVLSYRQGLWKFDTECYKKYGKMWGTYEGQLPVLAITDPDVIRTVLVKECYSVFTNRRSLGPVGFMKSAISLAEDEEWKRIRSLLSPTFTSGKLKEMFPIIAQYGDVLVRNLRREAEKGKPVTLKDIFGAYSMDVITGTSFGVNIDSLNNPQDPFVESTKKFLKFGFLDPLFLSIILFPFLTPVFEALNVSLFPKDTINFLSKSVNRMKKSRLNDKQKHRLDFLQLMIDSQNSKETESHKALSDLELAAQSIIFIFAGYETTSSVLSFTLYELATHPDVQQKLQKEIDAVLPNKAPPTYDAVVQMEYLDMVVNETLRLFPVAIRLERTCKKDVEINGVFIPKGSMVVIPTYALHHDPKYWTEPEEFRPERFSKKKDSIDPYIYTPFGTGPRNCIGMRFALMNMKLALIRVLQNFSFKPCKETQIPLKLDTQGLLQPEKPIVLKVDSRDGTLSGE
Sequence of Cytochrome P450 3A4 (P08684 whole entry): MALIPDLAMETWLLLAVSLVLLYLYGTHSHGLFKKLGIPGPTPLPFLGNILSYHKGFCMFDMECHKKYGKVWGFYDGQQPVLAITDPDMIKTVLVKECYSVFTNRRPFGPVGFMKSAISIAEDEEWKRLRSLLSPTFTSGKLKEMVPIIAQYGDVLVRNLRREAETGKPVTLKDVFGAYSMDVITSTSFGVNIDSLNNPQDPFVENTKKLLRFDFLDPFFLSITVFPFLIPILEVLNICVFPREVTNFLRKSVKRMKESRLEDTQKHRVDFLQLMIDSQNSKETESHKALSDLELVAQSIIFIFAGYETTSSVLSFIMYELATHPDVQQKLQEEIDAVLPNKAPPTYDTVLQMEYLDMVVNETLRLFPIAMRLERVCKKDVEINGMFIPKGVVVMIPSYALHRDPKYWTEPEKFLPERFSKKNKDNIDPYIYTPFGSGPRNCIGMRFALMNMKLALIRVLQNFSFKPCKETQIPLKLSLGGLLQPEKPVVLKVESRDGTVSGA
Sequence of Cytochrome P450 2C9 (P11712 whole entry): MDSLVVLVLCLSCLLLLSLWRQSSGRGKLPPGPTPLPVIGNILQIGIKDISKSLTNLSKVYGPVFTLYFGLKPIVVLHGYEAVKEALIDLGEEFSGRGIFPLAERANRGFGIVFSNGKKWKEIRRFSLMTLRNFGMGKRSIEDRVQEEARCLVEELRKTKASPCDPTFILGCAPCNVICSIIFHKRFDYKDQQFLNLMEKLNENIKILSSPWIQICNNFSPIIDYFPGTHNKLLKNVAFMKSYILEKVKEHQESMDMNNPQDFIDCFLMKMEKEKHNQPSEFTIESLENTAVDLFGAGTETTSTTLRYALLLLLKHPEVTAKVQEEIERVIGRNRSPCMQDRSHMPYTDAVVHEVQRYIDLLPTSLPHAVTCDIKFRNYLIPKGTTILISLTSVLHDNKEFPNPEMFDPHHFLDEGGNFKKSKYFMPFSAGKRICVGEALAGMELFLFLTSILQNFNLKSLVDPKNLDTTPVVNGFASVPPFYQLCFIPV

| SMILES | fraction unbound [1] | fraction unbound [2] | solubility [3] | logP [4] | MIC [5] | Activity [6] | Kp [7] | bioavailability [8] | Kp [9] | Cmax [10] | half-life [13] | AUC [14] | clearance [15] | Vd [16] | microsomal CLint [17] | Activity [18] | inhibition (INH) (Cytochrome P450 2C9) | inhibition (INH) (Cytochrome P450 2D6) | inhibition (INH) (Cytochrome P450 3A4) | inhibition (INH) (Cytochrome P450 3A5) | further results |
| --- | --- | --- | --- | --- | --- | --- | --- | --- | --- | --- | --- | --- | --- | --- | --- | --- | --- | --- | --- | --- | --- |
| COCCOc1ccc([C@H]2C[C@@H](C(F)(F)F)n3ncc(C(=O)NCc4ccc(F)cc4)c3N2)cc1 | 0.019 | 0.015 | 6 µM (≈ 2.95 µg/mL) | 4.1 | 0.44 µM (≈ 0.217 µg/mL) | – | – | – | – | – | – | – | – | – | – | – | – | – | – | – | – |
| Cc1ccc([C@H]2C[C@@H](C(F)F)n3ncc(C(=O)NCc4ccc(F)cc4)c3N2)nc1 | 0.043 | 0.052 | 212 µM (≈ 88.1 µg/mL) | 4.6 | 0.6 µM (≈ 0.249 µg/mL) | inactive | 1.7 | 53% | 2.8 | 5.5 µM | 1.8 h | 16.8 µM·h | 24 mL/min/kg | 2.6 L/kg | 85.6 µL/min/mg | Not Active | Not Active | Not Active | Not Active | Not Active | Cmax [11]: 15.2 µM; AUC [12]: 77.7 µM·h |
| Cc1ccc([C@H]2C[C@@H](C(F)(F)F)n3ncc(C(=O)NCc4ccc(F)cc4)c3N2)o1 | < 0.01 | < 0.01 | < 4 µM | 5.5 | 0.13 µM (≈ 0.0549 µg/mL) | – | – | – | – | – | – | – | – | – | – | – | – | – | – | – | – |
| COc1ccc(CNC(=O)c2cnn3c2N[C@@H](c2ccc(C)cc2)C[C@H]3C(F)(F)F)cn1 | < 0.01 | < 0.01 | < 4 µM | 5.1 | 0.47 µM (≈ 0.209 µg/mL) | – | – | – | – | – | – | – | – | – | – | – | – | – | – | – | – |
| Cc1ccc([C@H]2C[C@@H](C(F)(F)F)n3ncc(C(=O)NCc4ccc(F)cc4)c3N2)cc1 | < 0.01 | < 0.01 | < 4 µM | 6.3 | 0.15 µM (≈ 0.0649 µg/mL) | – | 3.2 | 65% | 4.5 | 3.6 µM | 4.2 h | 18.9 µM·h | 31 mL/min/kg | 6.3 L/kg | 43.5 µL/min/mg | Not Active | Not Active | Not Active | Not Active | Not Active | log10cfu [6]: 3.5; Cmax [19]: 8.3 µM; AUC [20]: 91.1 µM·h; Activity [21]: Active |
| Cc1ccc([C@H]2C[C@@H](C(F)(F)F)n3ncc(C(=O)NCc4ccc(F)cn4)c3N2)nc1 | 0.181 | 0.128 | 347 µM (≈ 151 µg/mL) | 3.2 | 52.2 µM (≈ 22.7 µg/mL) | – | – | – | – | – | – | – | – | – | – | – | – | – | – | – | – |
| O=C(NCc1ccc(F)cc1)c1cnn2c1N[C@@H](c1ccc(N3CCOCC3)cc1)C[C@H]2C(F)(F)F | 0.018 | 0.016 | < 4 µM | 4.8 | 0.87 µM (≈ 0.438 µg/mL) | – | – | – | – | – | – | – | – | – | – | – | – | – | – | – | – |
| COCCOc1ccc([C@H]2C[C@@H](C(F)(F)F)n3ncc(C(=O)NCc4ccc(F)cn4)c3N2)cc1 | 0.122 | 0.108 | 20 µM (≈ 9.87 µg/mL) | 3.2 | 3.7 µM (≈ 1.83 µg/mL) | – | – | – | – | – | – | – | – | – | – | – | – | – | – | – | – |
| Cc1ccc([C@H]2C[C@@H](C(F)(F)F)n3ncc(C(=O)NCc4ccc(F)cn4)c3N2)cc1 | 0.01 | < 0.01 | < 4 µM | 4.9 | 0.83 µM (≈ 0.36 µg/mL) | – | – | – | – | – | – | – | – | – | – | – | – | – | – | – | – |
| CC[C@@H](CO)NCCN[C@@H](CC)CO | – | – | – | – | – | Active | – | – | – | – | – | – | – | – | – | – | – | – | – | – | – |
| O=C(NCc1ccc(F)cc1)c1cnn2c1N[C@@H](c1ccc(OC3COC3)cc1)C[C@H]2C(F)(F)F | 0.027 | 0.024 | 9 µM (≈ 4.41 µg/mL) | 5.1 | 0.73 µM (≈ 0.358 µg/mL) | inactive | 2.7 | 52% | 2.2 | 3.7 µM | 4.1 h | 41.7 µM·h | 9.9 mL/min/kg | 2.5 L/kg | 8.92 µL/min/mg | Not Active | Not Active | Not Active | Not Active | Not Active | Cmax [11]: 7.3 µM; AUC [12]: 71.3 µM·h |
| Cc1ccc([C@H]2C[C@@H](C(F)(F)F)n3ncc(C(=O)NCc4ccc(F)cc4)c3N2)nc1 | 0.039 | 0.042 | 9 µM (≈ 3.9 µg/mL) | 4.4 | 0.44 µM (≈ 0.191 µg/mL) | inactive | 1.9 | 100% | 2.1 | 3.6 µM | 1.3 h | 25 µM·h | 38 mL/min/kg | 3.4 L/kg | 71.8 µL/min/mg | Not Active | Not Active | Not Active | Not Active | Not Active | Cmax [11]: 11.8 µM; AUC [12]: 91.9 µM·h |
